According to patent US11542251B2, “IRAK degraders and uses thereof” (DANA-FARBER CANCER INSTITUTE, INC., priority 2018, dated 2023):

Legend:
[1] = target: T1, IRAK4 (Homo sapiens (Human), UniProt Q9NWZ3); assay: Z'-LYTE kinase assay, IRAK4; assay type: biochemical; conditions: Z'-LYTE kinase assay format
Description: (§1) The IRAK1 and IRAK 4 IC50 values for various compounds disclosed herein generated from an Adapta® kinase assay format, and a Z′-LYTE™ kinases assay format, respectively, are shown in Table 1.

[2] = target: T2, IRAK1 (Homo sapiens (Human), UniProt P51617); assay: Adapta kinase assay, IRAK1; assay type: biochemical; conditions: Adapta kinase assay format
T2 sequence (P51617 whole entry): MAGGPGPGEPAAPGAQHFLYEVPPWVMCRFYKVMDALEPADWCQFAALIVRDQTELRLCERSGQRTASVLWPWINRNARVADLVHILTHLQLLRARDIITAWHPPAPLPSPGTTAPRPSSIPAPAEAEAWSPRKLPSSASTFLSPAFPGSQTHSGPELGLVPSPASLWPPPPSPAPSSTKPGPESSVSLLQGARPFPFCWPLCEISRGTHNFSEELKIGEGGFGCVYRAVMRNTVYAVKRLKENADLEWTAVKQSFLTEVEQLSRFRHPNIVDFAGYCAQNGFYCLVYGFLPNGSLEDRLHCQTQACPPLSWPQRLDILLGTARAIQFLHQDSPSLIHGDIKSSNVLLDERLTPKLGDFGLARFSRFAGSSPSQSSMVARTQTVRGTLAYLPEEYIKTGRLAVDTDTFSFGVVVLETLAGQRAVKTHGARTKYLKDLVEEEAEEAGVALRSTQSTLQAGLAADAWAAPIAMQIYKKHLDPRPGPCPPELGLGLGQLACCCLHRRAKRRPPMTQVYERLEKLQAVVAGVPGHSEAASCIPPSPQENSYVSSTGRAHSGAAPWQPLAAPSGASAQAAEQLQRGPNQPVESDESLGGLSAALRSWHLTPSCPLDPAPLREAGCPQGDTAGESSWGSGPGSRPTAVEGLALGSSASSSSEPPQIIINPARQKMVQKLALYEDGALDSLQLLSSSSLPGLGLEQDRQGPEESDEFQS
Description: as §1

[3] = target: T2, IRAK1; assay: Immunoblotting, IRAK1 degradation in BCWM.1 cells; assay type: cell-based; conditions: overnight treatment
Experimental: (§2) The degradation of IRAK1 or IRAK4 proteins in BCWM.1 cells was determined by immunoblotting using BCWM.1 total cell lysates prepared following overnight treatment with IRAK1/4 degraders or inhibitors using anti-IRAK1 and anti-IRAK4 antibodies (Cell Signaling Technologies, Danvers Mass.). Anti-GAPDH antibody (Santa Cruz Biotechnology) was used for determination of protein loading.

[4] = target: T1, IRAK4; assay: Immunoblotting, IRAK4 degradation in BCWM.1 cells; assay type: cell-based; conditions: overnight treatment
Experimental: as §2

[5] = concentrations as high as 10 μM

T1 sequence (Q9NWZ3 whole entry): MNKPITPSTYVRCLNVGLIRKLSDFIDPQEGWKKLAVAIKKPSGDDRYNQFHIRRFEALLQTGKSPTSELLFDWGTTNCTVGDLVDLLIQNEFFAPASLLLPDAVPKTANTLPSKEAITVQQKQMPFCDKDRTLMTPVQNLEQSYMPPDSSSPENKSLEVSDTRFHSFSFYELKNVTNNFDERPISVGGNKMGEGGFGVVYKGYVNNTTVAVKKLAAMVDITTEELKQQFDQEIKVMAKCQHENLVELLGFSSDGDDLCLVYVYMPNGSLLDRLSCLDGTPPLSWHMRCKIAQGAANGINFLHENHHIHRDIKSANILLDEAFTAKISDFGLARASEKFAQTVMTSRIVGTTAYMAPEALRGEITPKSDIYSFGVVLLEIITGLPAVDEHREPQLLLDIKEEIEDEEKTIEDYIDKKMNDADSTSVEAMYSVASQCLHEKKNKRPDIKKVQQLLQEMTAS

IC50 [1]	IC50 [2]	SMILES	further results
3 nM	7 nM	CC(C)N1CCC(c2cc(NC(=O)c3cccc(-c4ccn[nH]4)n3)n(-c3ccccn3)n2)CC1 [TL1, reference compound]	effect on IRAK1 protein levels ([3]; concentration of 10 μM): no effect; effect on IRAK4 protein levels ([4]; concentration of 10 μM): no effect
> 10000 nM	9 nM	C=CC(=O)Nc1cccc(C(=O)Nc2ccc(NC(=O)c3cccc(-c4ccn[nH]4)n3)cc2)c1 [TL2, reference compound]	

Continued, compound first:

SMILES	IC50 [1]	IC50 [2]	further results
O=C1CCC(N2Cc3c(NCCOCCOCCC(=O)N4CCC(c5cc(NC(=O)c6cccc(-c7ccn[nH]7)n6)n(-c6ccccn6)n5)CC4)cccc3C2=O)C(=O)N1 (stereo not drawn) [Compound 3, N-(3-(1-(3-(2-(2-((2-(2,6-dioxopiperidin-3-yl)-1-oxoisoindolin-4-yl)amino)ethoxy)ethoxy)propanoyl)piperidin-4-yl)-1-(pyridin-2-yl)-1H-pyrazol-5-yl)-6-(1H-pyrazol-5-yl)picolinamide]	18 nM	40 nM	
CN1C(=O)CCC(N2C(=O)c3cccc(NCCOCCOCCOCCOCCC(=O)N4CCC(c5cc(NC(=O)c6cccc(-c7ccn[nH]7)n6)n(-c6ccccn6)n5)CC4)c3C2=O)C1=O (stereo not drawn) [Compound C1]			degradation of IRAK1 protein [3, 5]: no degradation; degradation of IRAK4 protein [4, 5]: no degradation
O=C1CCC(N2C(=O)c3cccc(NCCOCCOCCC(=O)N4CCC(c5cc(NC(=O)c6cccc(-c7ccn[nH]7)n6)n(-c6ccccn6)n5)CC4)c3C2=O)C(=O)N1 (stereo not drawn) [Compound 2]	44 nM	42 nM	
O=C1CCC(N2C(=O)c3cccc(OCCCCCCCCC(=O)N4CCC(c5cc(NC(=O)c6cccc(-c7ccn[nH]7)n6)n(-c6ccccn6)n5)CC4)c3C2=O)C(=O)N1 (stereo not drawn) [Compound 4, N-(3-(1-(9-((2-(2,6-dioxopiperidin-3-yl)-1,3-dioxoisoindolin-4-yl)oxy)nonanoyl)piperidin-4-yl)-1-(pyridin-2-yl)-1H-pyrazol-5-yl)-6-(1H-pyrazol-5-yl)picolinamide]	142 nM	212 nM	
O=C1CCC(N2C(=O)c3cccc(NCCOCCOCCOCCOCCC(=O)N4CCC(c5cc(NC(=O)c6cccc(-c7ccn[nH]7)n6)n(-c6ccccn6)n5)CC4)c3C2=O)C(=O)N1 (stereo not drawn) [Compound 1, N-(3-(1-(1-((2-(2,6-dioxopiperidin-3-yl)-1,3-dioxoisoindolin-4-yl)amino)-3,6,9,12-tetraoxapentadecan-15-oyl)piperidin-4-yl)-1-(pyridin-2-yl)-1H-pyrazol-5-yl)-6-(1H-pyrazol-5-yl)picolinamide]	16 nM	43 nM	degradation of IRAK1 protein ([3]; FIG. 4): degraded; degradation of IRAK4 protein ([4]; FIG. 4): degraded
